The assay deals with Adult Boophilus microplus. The assay is described as follows: Topical application test on fully engorged adult Boophilus microplus ticks; overall reduction in anticipated reproduction (eggs laid and hatching). Conditions: Rhipicephalus microplus, read-out: In Vitro Activity (topical application) vs. Adult Boophilus microplus % Effect; for inhibition at 10 µg/tick: 10 μg/tick; for inhibition at 0.5 µg/tick: 0.5 μg/tick; for inhibition at 1 µg/tick: 1 μg/tick; for inhibition at 2 µg/tick: 2 μg/tick; for inhibition at 4 µg/tick: 4 μg/tick; for inhibition at 8 µg/tick: 8 μg/tick. The class given is in vivo. The method, then: In one test, five freshly collected, fully engorged Boophilus microplus adult ticks are used for each acaricidal compound. Using a micro-pipette, 10 micro-liters of a solution containing 10 micro-grams of the acaricidal compound in ethanol or acetone, is applied to the dorsal surface of each of the ticks. The treated ticks are placed in weighted 1"×2" glass vials, weighted and stored at 26° C. and 80% relative humidity in plastic boxes for two weeks. The ticks are then removed from the vials and the vials weighted to give the weight of eggs laid by the ticks. Any reduction in the egg laying of the treated ticks is caculated as a percentage of the eggs laid by untreated control ticks.
The eggs are returned to the incubator for a further 3 weeks after which time the percentage of eggs hatching is estimated.
The percentage effect is calculated as the overall reduction in the anticipated reproduction of the ticks using the weight of eggs laid and the percentage of eggs hatching.
The test may be repeated using smaller amounts of the acaricidal compound for sufficiently active compounds.
The activity of many of the compounds of the Examples detailed hereinafter against the tick Boophilus microplus has been determined.

Structures are written as SMILES.

The results in this text go back to patent publication US4162253A, “Acaricidal agents” (Pfizer Inc., priority 1975, dated 1979).

On to `CCCCCCCCCC[N+]1=C2SC(C)=C(c3ccccc3)N2CC1` [Example 46], for which the inhibition at 10 µg/tick was 95%.

As for `CCCCCCCCCCCCCCCCC[N+]1=C2SC=C(c3ccccc3)N2CCCC1` [Example 32], the inhibition at 0.5 µg/tick amounted to 0%, the inhibition at 1 µg/tick was found to be 12%, the inhibition at 2 µg/tick amounted to 66% and the inhibition at 4 µg/tick amounted to 94%. Further, the inhibition at 8 µg/tick was found to be 95% and the inhibition at 10 µg/tick is 100%.

Consider `CCCCCCCCCCCC[N+]1=C2SC=C(c3ccccc3)N2CCCC1` [Example 37], for which the inhibition at 10 µg/tick was 87%.

Consider `CCCCCCCCCCCCCCCC[N+]1=C2SC=C(c3ccccc3)N2CCC1` [Example 3], for which the inhibition at 0.5 µg/tick turned out to be 2%, the inhibition at 1 µg/tick came out at 13%, the inhibition at 2 µg/tick came to 26% and the inhibition at 4 µg/tick was 90%. The inhibition at 8 µg/tick came out at 97% and the inhibition at 10 µg/tick came to 100%.

Take `CCCCCCCCCCCCCCCC[N+]1=C2SC=CN2CCCC1` [Example 36]: the inhibition at 10 µg/tick turned out to be 26%.

Take `CCCCCCCCCCCCCCCCCC[N+]1=C2SC=C(c3ccccc3)N2CCC1` [Example 14]: the inhibition at 10 µg/tick is 47%.

As to `CCCCCCCCCCCCC[N+]1=C2SC=C(C)N2CCCC1` [Example 27], the inhibition at 0.5 µg/tick stood at 40%, the inhibition at 1 µg/tick is 38%, the inhibition at 2 µg/tick amounted to 55% and the inhibition at 4 µg/tick came to 63%. The inhibition at 8 µg/tick was determined as 75% and the inhibition at 10 µg/tick came out at 86%.

With `CCCCCCCCCCCCCCC[N+]1=C2SC=C(C)N2CCCC1` [Example 24], the inhibition at 0.5 µg/tick was determined as 13%, the inhibition at 1 µg/tick stood at 48%, the inhibition at 2 µg/tick is 70% and the inhibition at 4 µg/tick came to 97%. Also, the inhibition at 8 µg/tick is 100% and the inhibition at 10 µg/tick was 100%.

Take `CCCCCCCCCCCCCCCC[N+]1=C2SC(c3ccccc3)=CN2CCCC1` [Example 34]: the inhibition at 10 µg/tick came out at 32%.

On to `CCCCCCCCCCCCCC[N+]1=C2SC=C(C)N2CCC1` [Example 5], for which the inhibition at 1 µg/tick stood at 0%, the inhibition at 2 µg/tick came out at 4%, the inhibition at 4 µg/tick was determined as 32% and the inhibition at 8 µg/tick is 63%. For the same molecule, the inhibition at 10 µg/tick came out at 65%.

Turning to `CCCCCCCCCCCCCCC[N+]1=C2SC(C)=C(c3ccccc3)N2CC1` [Example 43], the inhibition at 0.5 µg/tick was 4%, the inhibition at 1 µg/tick came to 23%, the inhibition at 2 µg/tick worked out at 72% and the inhibition at 4 µg/tick was 96%. The inhibition at 8 µg/tick turned out to be 100% and the inhibition at 10 µg/tick was 100%.

Consider `CCCCCCCCCCCCCCCCCC[N+]1=C2SC=C(C)N2CCC1` [Example 8], for which the inhibition at 10 µg/tick amounted to 26%.

Turning to `CCCCCCCCCCCCCCCC[N+]1=C2SC=C(c3ccccc3)N2CCCC1` [Example 21], the inhibition at 1 µg/tick was found to be 0%, the inhibition at 2 µg/tick amounted to 83%, the inhibition at 4 µg/tick was found to be 98% and the inhibition at 8 µg/tick is 100%. Moreover, the inhibition at 10 µg/tick amounted to 100%.

With `CCCCCCCCCCCCCCCC[N+]1=C2SC(C)=C(c3ccccc3)N2CC1` [Example 42, 7-cetyl-2-methyl-3-phenyl--5,6-dihydro-imidazo[2,1-b]thiazolium bromide], the inhibition at 0.5 µg/tick is 6%, the inhibition at 1 µg/tick was 52%, the inhibition at 2 µg/tick was 50% and the inhibition at 4 µg/tick was found to be 90%. In addition, the inhibition at 8 µg/tick turned out to be 100% and the inhibition at 10 µg/tick was found to be 100%.

In the case of `CCCCCCCCCCCCCCC[N+]1=C2SC=C(C)N2CCC1` [Example 10], the inhibition at 10 µg/tick turned out to be 72%.

Regarding `CCCCCCCCCCCCCCCC[N+]1=C2SC=C(c3ccc(F)cc3)N2CCCC1` [Example 41], the inhibition at 0.5 µg/tick came to 5%, the inhibition at 1 µg/tick came out at 18%, the inhibition at 2 µg/tick was 18% and the inhibition at 4 µg/tick is 16%. Further, the inhibition at 8 µg/tick was found to be 43% and the inhibition at 10 µg/tick stood at 92%.

Regarding `CCCCCCCCCCCCCCCC[N+]1=C2SC3=C(CCCC3)N2CCCC1` [Example 35, 9-hexadecyl-2,3-tetramethylene-5,6,7,8-tetrahydrothiazolo[3,2-a][1,3] diazepinium bromide], the inhibition at 0.5 µg/tick worked out at 0%, the inhibition at 1 µg/tick turned out to be 8%, the inhibition at 2 µg/tick amounted to 13% and the inhibition at 4 µg/tick is 70%. The inhibition at 8 µg/tick was 100% and the inhibition at 10 µg/tick amounted to 100%.

For `CCCCCCCCCCCCCCC[N+]1=C2SC(C)=C(c3ccccc3)N2CCC1` [Example 11], the inhibition at 0.5 µg/tick was found to be 30%, the inhibition at 1 µg/tick came to 36%, the inhibition at 2 µg/tick amounted to 73% and the inhibition at 4 µg/tick amounted to 100%. For the same molecule, the inhibition at 8 µg/tick is 100% and the inhibition at 10 µg/tick worked out at 100%.

Turning to `CCCCCCCCCCCC[N+]1=C2SC=C(C)N2CCCC1` [Example 38], the inhibition at 10 µg/tick turned out to be 30%.

Turning to `CCCCCCCCCCCCCC[N+]1=C2SC(C)=C(CC)N2CCC1` [Example 4], the inhibition at 2 µg/tick amounted to 12%, the inhibition at 4 µg/tick is 75%, the inhibition at 8 µg/tick is 100% and the inhibition at 10 µg/tick worked out at 83%.

Turning to `CCCCCCCCCCCCCCCCC[N+]1=C2SC(C)=C(c3ccccc3)N2CC1` [Example 44], the inhibition at 0.5 µg/tick is 0%, the inhibition at 1 µg/tick is 63%, the inhibition at 2 µg/tick amounted to 89% and the inhibition at 4 µg/tick was found to be 93%. For the same molecule, the inhibition at 8 µg/tick is 100% and the inhibition at 10 µg/tick amounted to 100%.

Consider `CCCCCCCCCCCCCC[N+]1=C2SC(C)=C(c3ccccc3)N2CCC1` [Example 13], for which the inhibition at 0.5 µg/tick is 0%, the inhibition at 1 µg/tick was determined as 6%, the inhibition at 2 µg/tick turned out to be 21% and the inhibition at 4 µg/tick was 99.4%. For the same molecule, the inhibition at 8 µg/tick is 99.9% and the inhibition at 10 µg/tick worked out at 100%.

On to `CCCCCCCCCCCCCCCC[N+]1=C2SC(C)=C(CC)N2CCC1` [Example 1, 8-cetyl-3-ethyl-2-methyl-6,7-dihydro[5H]thiazolo[3,2-a]pyrimidinium bromide], for which the inhibition at 0.5 µg/tick worked out at 24%, the inhibition at 1 µg/tick is 59%, the inhibition at 2 µg/tick was 99% and the inhibition at 4 µg/tick turned out to be 100%. In addition, the inhibition at 8 µg/tick was determined as 100% and the inhibition at 10 µg/tick came to 100%.

`CCCCCCCCCCCCCCCCC[N+]1=C2SC=C(c3ccccc3)N2CCC1` [Example 6]: the inhibition at 1 µg/tick was 7%, the inhibition at 2 µg/tick was determined as 43%, the inhibition at 4 µg/tick was 79% and the inhibition at 8 µg/tick came out at 98%. Besides, the inhibition at 10 µg/tick stood at 100%.

`CCCCCCCCCCCCCCCCC[N+]1=C2SC(C)=C(c3ccccc3)N2CCC1` [Example 15]: the inhibition at 0.5 µg/tick worked out at 11%, the inhibition at 1 µg/tick came out at 9%, the inhibition at 2 µg/tick turned out to be 29% and the inhibition at 4 µg/tick worked out at 99.9%. Further, the inhibition at 8 µg/tick was found to be 100% and the inhibition at 10 µg/tick is 100%.
